This is an account of results in patent US20080027003A1, “Peptides Useful for Treating Gnrh Associated Diseases” (CurePeptide Ltd., priority 2004, published 2008).

Where two headings read alike, the source gives them in different places. Non-standard residues stand in square brackets, D forms with d. Residues, ends and D or L forms follow the SMILES beside them. *: point of attachment. Palmitoyl = CCCCCCCCCCCCCCCC(=O)*

Data set [1] concerns Colo-205 adenocarcioma cell line. Description: Growth inhibitory effect by Hemacolor assay on Colo-205 (Example 7). The class given is cell-based, human. An excerpt:
Peptides were synthesized as described in Example 6 above.
Table 10 below summarizes the concentration of the various peptides required to obtain 50% viability, or to destroy 50% of the tumor cells, as derived from the hemacolor test (FIGS. 3 and 4a-c). Of note, the higher the concentration of peptide required, the poorer the potency of the analog.

A further data set relates to Colo-205. The data set is classed as cell-based, human. Particulars: 24 h. As to the method:
(§1) Hemacolor assay—A comparative study was effected between peptides GnRH—X and NLS-GnRH-E on three adenocarcinoma cell lines: MDA-MB-231 (breast) HCT-116 and Colo-205 (colon), described in Example 5 above. Briefly, cells were plated in 96 well plates and allowed to adhere to the plates. Thereafter, various concentrations of GnRH and NLS-GnRH peptides were incubated with the adhered cells for 24 h. To quantify the extent of damage to the cells by the peptides, the Hemacolor assay was effected as described in Example 5. Viable cells which remained adhered to the 96 plastic plates were fixed and stained. Dye was extracted from the plate by addition of 0.5% SDS in PBS (100 μl) with vigorous mixing. Plates were quantified at 650 nm by spectrophotometer (ELISA reader). Cell viability of ≧95% by Trypan blue exclusion from 400 cells was a prerequisite for each experiment. Note, the color intensity is proportional to the extent of the remaining viability. Data was calculated as EC50, which is defined as the concentration (in μM) of analog that provokes a response half way between the baseline (Bottom=control) and maximum response (Top).

The subject of another data set is HCT-116. The data set is classed as cell-based, human. Particulars: 24 h. On the procedure: as §1
For the next data set, the system named is MDA-MB-231. The data set is classed as cell-based, human. Particulars: 24 h. On the procedure:
as §1

In data set [2] the test system is female athymic nude mice NCr-nu. As to the kind of experiment: Total tolerated dosage (TTD), single injection. The class given is in vivo. The note with it: observed 14 days. On the procedure: The total tolerated dosage of peptide by mice administered with a single injection was tested.
The test compounds were administered to 10 female athymic nude mice NCr-nu (Charles River Laboratories, Wilmington, Mass.) as a single injection at the following dosages and routes:
Peptide X was injected intra-peritonealy (IP) at 400, 200, and 100 mg/kg.
Peptide NLS-E was tested intra-venously (IV) at 400, 200, 100, 50 and 25 mg/kg
Different injection volumes of a stock solution at a concentration of 20 mg/ml were used to administer the desired dosages (injection volumes of 0.05, 0.1, and 0.2 ml/10 g body, respectively) The carrier was water for injection at pH 7. […] Individual body weights were measured twice a week.

Data set [3] deals with female athymic NCr-nu nude mice. As to the kind of experiment: Maximal tolerated dosage (MTD), twice a day for 14 consecutive days. The note with it: for mice that died: five mice per group. The data set is classed as in vivo. On the procedure: The maximum tolerated dosage (MTD) of the test compounds was tested when administered twice a day for 14 consecutive days.
A total of 50 female athymic NCr-nu nude mice (obtained as mentioned in Example 10a) were used as follows: five groups of mice with five mice per group per compound. Peptides dissolved in water at pH 7 (the vehicle) were evaluated at four dosages (The dosages selected were derived from the results of the TTD experiment, Example 10a):
Peptide X was injected IP at 20 mg/kg/injection for 7 days, followed by IP injections at […] 10, 5, 2.5 mg/kg/injection for 7 days followed by 30, 15 and 7.5 mg/kg, for 14 days respectively.
Peptide NLS-E was tested at 10, 5, 2.5, and 1.25 mg/kg/injection followed by injection at 30, 15, 7.5 and 3.75 mg/kg respectively. Injections were given IV except in the groups treated with 10/30 and 5/15 mg/kg/injection, where injections were switched to IP route on day 10 of treatment.
Additionally, one vehicle-treated control group of five mice per compound was included in the experiment. […] The MTD study was terminated on Day 29.
Individual body weights were measured twice a week.

The mark [4] stands for this setting: read-out: Concentration [M] × 10^−6 (derived from table 10).
Where [5] appears, read: read-out: Concentration required to obtain 50% viability.

For “Palm-Pro-Gly-D-Phe-Pro-Ser-Tyr-D-Lys(H-Pro-Lys-Lys-Lys-Arg-Lys-Val)-Leu-Arg-Pro-Gly-NH2 [SEQ ID NO: 32]”, the “Activity with respect to NLS-E (%)” value in data set [1] worked out at 50%. Further, the EC50 in data set [1] (setting [4]) and in data set [1] (setting [5]) was 1e-05 M throughout.
For the compound `CCCCCCCCCCCCCCCC(=O)N[C@H](CCCCNC(=O)[C@@H](NC(=O)[C@H](CCCCN)NC(=O)[C@H](CCCNC(=N)N)NC(=O)[C@H](CCCCN)NC(=O)[C@H](CCCCN)NC(=O)[C@H](CCCCN)NC(=O)[C@@H]1CCCN1)C(C)C)C(=O)N1CCC[C@H]1C(=O)NCC(=O)N[C@H](Cc1ccccc1)C(=O)N1CCC[C@H]1C(=O)N[C@@H](CO)C(=O)N[C@@H](Cc1ccc(O)cc1)C(=O)N[C@H](CCCCN)C(=O)N[C@@H](CC(C)C)C(=O)N[C@@H](CCCNC(=N)N)C(=O)N1CCC[C@H]1C(=O)NCC(N)=O` [SEQ ID NO: 33, Palm-D-Lys(H-Pro-Lys-Lys-Lys-Arg-Lys-Val)-Pro-Gly-D-Phe-Pro-Ser-Tyr-D-Lys-Leu-Arg-Pro-Gly-NH2], the values for the EC50 with Colo-205, in the data set with HCT-116 and in the data set on MDA-MB-231 were 68 µM, 320 µM and 350 µM, respectively. Besides, the “lethality after single injection” value was “stayed alive” in data set [2] (IV, 25 mg/kg); “stayed alive” in data set [2] (IV, 50 mg/kg); “lethal” in data set [2] (IV, 100 mg/kg); “lethal” in data set [2] (IV, 200 mg/kg); “lethal” in data set [2] (IV, 400 mg/kg). Moreover, the mice that died result in data set [3] (IV injected, all dosages) was “None”. In addition, in data set [3] (repeated dosing in mice), the comparative toxicity result is reported as “less toxic than peptide X”.
As for “Palm-D-Lys-Pro-Gly-D-Phe-Pro-Ser-Tyr-D-Lys-Leu-Arg-Pro-Gly-NH2 (Palmitoyl-[dK]PG[dF]PSY[dK]LRPG-NH2; SMILES CCCCCCCCCCCCCCCC(=O)N[C@H](CCCCN)C(=O)N1CCC[C@H]1C(=O)NCC(=O)N[C@H](Cc1ccccc1)C(=O)N1CCC[C@H]1C(=O)N[C@@H](CO)C(=O)N[C@@H](Cc1ccc(O)cc1)C(=O)N[C@H](CCCCN)C(=O)N[C@@H](CC(C)C)C(=O)N[C@@H](CCCNC(=N)N)C(=O)N1CCC[C@H]1C(=O)NCC(N)=O) [SEQ ID NO: 9]”, the “Activity with respect to NLS-E (%)” value in data set [1] was 16%. For the same compound, the EC50 in data set [1] (setting [4]) and in data set [1] (setting [5]) was 3.5e-05 M each time. Also, the “Activity with respect to NLS peptide (%)” value in data set [1] (relative to the corresponding NLS-conjugated peptide) amounted to 16%.
Take “Palm-Pro-Gly-D-Phe-Ala-Ser-Tyr-D-Lys-Leu-Arg-Pro-Gly-NH2 (Palmitoyl-PG[dF]ASY[dK]LRPG-NH2; SMILES CCCCCCCCCCCCCCCC(=O)N1CCC[C@H]1C(=O)NCC(=O)N[C@H](Cc1ccccc1)C(=O)N[C@@H](C)C(=O)N[C@@H](CO)C(=O)N[C@@H](Cc1ccc(O)cc1)C(=O)N[C@H](CCCCN)C(=O)N[C@@H](CC(C)C)C(=O)N[C@@H](CCCNC(=N)N)C(=O)N1CCC[C@H]1C(=O)NCC(N)=O) [SEQ ID NO: 16]”: the “Activity with respect to NLS-E (%)” value in data set [1] stood at 16%. Moreover, in data set [1] (setting [5]), the EC50 was 3.5e-05 M.
For the compound “Palm-D-Lys-Gly-D-Phe-Pro-Ser-Tyr-D-Lys-Leu-Arg-Pro-Gly-NH2 (Palmitoyl-[dK]G[dF]PSY[dK]LRPG-NH2; SMILES CCCCCCCCCCCCCCCC(=O)N[C@H](CCCCN)C(=O)NCC(=O)N[C@H](Cc1ccccc1)C(=O)N1CCC[C@H]1C(=O)N[C@@H](CO)C(=O)N[C@@H](Cc1ccc(O)cc1)C(=O)N[C@H](CCCCN)C(=O)N[C@@H](CC(C)C)C(=O)N[C@@H](CCCNC(=N)N)C(=O)N1CCC[C@H]1C(=O)NCC(N)=O) [SEQ ID NO: 10]”, the “Activity with respect to NLS-E (%)” value in data set [1] was 12.5%. Besides, the EC50 in data set [1] (setting [5]) is 5e-05 M.
As to `CCCCCCCCCCCCCCCC(=O)N1CCC[C@H]1C(=O)NCC(=O)N[C@H](Cc1ccccc1)C(=O)N1CCC[C@H]1C(=O)N[C@@H](CO)C(=O)N[C@@H](Cc1ccc(O)cc1)C(=O)N[C@H](CCCCN)C(=O)N[C@@H](CC(C)C)C(=O)N[C@@H](CCCNC(=N)N)C(=O)N1CCC[C@H]1C(=O)NCC(N)=O` [SEQ ID NO: 2, Palm-Pro-Gly-D-Phe-Pro-Ser-Tyr-D-Lys-Leu-Arg-Pro-Gly-NH2] (Palmitoyl-PG[dF]PSY[dK]LRPG-NH2), the results for the EC50 in the data set with Colo-205, with HCT-116 and in the data set with MDA-MB-231 were 200 µM, 750 µM and 400 µM, respectively. For the same compound, the “lethality after single injection” value in data set [2] (IP, 100 mg/kg) is recorded as “stayed alive”; in data set [2] (IP, 200 mg/kg) it was “lethal”; in data set [2] (IP, 400 mg/kg) it was “lethal”. Further, the mice that died result in data set [3] (10/30 mg/kg) was “one”; in data set [3] (IP, 20/60 mg/kg), “Three”.
